# Measurements published in US20090048160A1, “Antimicrobial activity of bovine bactericidal/permeability-increasing protein (BPI)-derived peptides against Gram-negative bacterial mastitis isolates” (priority 2007, published 2009).
# Ends that are not written are not given here.
# Assays:
# Enterobacter aerogenes = format: cell-based
# Source text: Bacterial isolates of Escherichia coli, Klebsiella pneumonia, Serratia marcescens, Pseudomonas aeruginosa, Enterobacter cloacae, and Enterobacter aerogenes, which were obtained from clinical cases of bovine mastitis, were used to assess the bactericidal activity of peptides in a broth microdilution assay. Isolates were obtained from repositories at Cornell University (gift of Dr. Y. H. Schukken; Quality Milk Production Services Program, Cornell University, Ithaca N.Y.) and the USDA Beltsville Agricultural Research Center. […] A. J. Bramley, Institute for Animal Health, Compton Laboratory, Newbury, England), which was originally isolated from a clinical case of mastitis ([…]. Dairy Res. 43: 205-211) was also used to assess the bactericidal activity of the peptides in biological fluids. Reference strains of E. coli (ATCC 25922) and Staphylococcus aureus (ATCC 29213) were obtained from a commercial source (American Type Culture Collection (ATCC), Manassas, Va.). To obtain fresh inoculums for evaluation, a sterile loop of each bacterial glycerol stock was streaked on a blood agar plate. After an overnight incubation at 35° C., a single uniform colony was picked and sub-passaged by streaking on a new blood agar plate and incubating the plate overnight at 35° C. To evaluate the antimicrobial activity of the peptides against various clinical mastitis bacterial isolates, the minimum inhibitory concentration (MIC) and the minimum bactericidal concentration (MBC) of these peptides against the isolates were determined using a standardized broth microdilution assay. In addition to the mastitis isolates, E. coli (ATCC 25922) and S. aureus (ATCC 29213) reference strains were evaluated. […] The assays were performed in accordance with Clinical and Laboratory Standards Institute (CLSI) [formerly National Committee for Clinical Laboratory Standards (NCCLS)] guidelines (National Committee for Clinical Laboratory Standards. 1999. Methods for Determining Bacterial Activity of Antimicrobial Agents: Approved Guideline. Wayne, Pa.; National Committee for Clinical Laboratory Standards. 2002. Performance Standards for Antimicrobial Disk and Dilution Susceptibility Tests for Bacteria Isolated from Animals: Approved Standard. 2nd Edition, Wayne, Pa.). […] The bacterial suspension was then diluted 100-fold in cation-adjusted Mueller-Hinton broth to reach a final inoculum concentration of 10^6 CFU/ml. […] A negative control column was included in the plate that included 100 μl of broth alone. The plates were incubated for 18 h at 35° C. with ambient air circulation and without shaking. The wells were subsequently inspected for cloudiness and pellet formation using a magnifying glass plate reader. The lowest concentration at which no pellet or cloudiness was apparent in a given well was identified as the MIC. […] The plates were incubated overnight at 35° C. and colonies subsequently enumerated. The MBC values were determined as the lowest concentration at which ≧99.9% of inoculated bacteria were killed. All assays were performed in triplicate and the MIC and MBC range reported.
# [1] = tested on: bacterial LPS derived from E. coli 0111:B4; assay: LPS neutralization, Limulus amebocyte lysate (LAL) assay; format: biochemical; conditions: 1 ng LPS; for inhibition of LPS activity: 30 min
# Procedure: FIG. 1 depicts the mean (±S.E.) percent neutralization of bacterial LPS bioactivity as determined with the Limulus amebocyte lysate assay. Increasing concentrations of peptides or polymixin B were incubated with 1 ng of E. coli-derived LPS for 30 min. Following incubation, the amount of free LPS was determined by extrapolation from a standard curve and the percent of bound (neutralized) LPS was calculated.
# The ability of the peptides to neutralize LPS was determined using a commercially available Limulus amebocyte lysate (LAL) assay (Cambrex BioScience Walkersville, Inc., Walkersville, Md.). As a positive control, polymyxin B (Sigma Chemical Co.) was evaluated in parallel with the peptides. Increasing concentrations of peptides or polymyxin B were incubated with 1 ng of highly purified bacterial LPS (Sigma Chemical Co.), derived from E. coli 0111:B4, in a 500 μl reaction volume of endotoxin-free water for 30 min at 37° C. while shaking at 100 rpm. Following the incubation, the amount of free LPS was determined in each sample according to the manufacturer's instructions. Briefly, 50 μl of the above mixture was placed into a 96-well microtiter plate and the reaction initiated by the addition of an equal volume of amoebocyte lysate. Following an incubation at 37° C. for 10 min, 100 μl of chromogenic substrate was added and the plate incubated for 5-10 min at 37° C. The reaction was stopped by the addition of 50 μl of glacial acetic acid and the absorbance measured at a wavelength of 405 nm on a microplate reader (Biotec Instruments, Inc., Winooski, Vt.). The amount of non-bound LPS was extrapolated from a standard curve and the percent inhibition calculated according to the following formula: […]
# To determine whether the bBPI peptides were able to neutralize LPS, increasing concentrations of the peptides were incubated with LPS (1 ng) and the resulting mixture assayed with the LAL assay (FIG. 1). As a positive and negative control, respectively, polymyxin B and a non-BPI-derived peptide were also assayed. […] In contrast, bBPI142-169 and bBPI90-99,148-161 were able to neutralize ≧93% of LPS activity at peptide concentrations of 30 and 100 μg/ml, respectively.
Sequence,MBC (Enterobacter aerogenes),MIC (Enterobacter aerogenes),inhibition of LPS activity ([1]; 1 μg/ml),inhibition of LPS activity ([1]; 30 μg/ml),maximal inhibition of LPS activity ([1]; within the dose-response range tested)
"KWKARKNFIKGSSLGWLIQLFRKR [bBPI90-99,148-161]",64 µg/mL,64 µg/mL,no inhibition,74%,
NSQIRPLPDKGLDLSIRDASIKIRGKWKARKNFIK [bBPI65-99],>256 µg/mL,>256 µg/mL,approximately 20%,,50%
VRIHISGSSLGWLIQLFRKRIESLLQKS [bBPI142-169],>256 µg/mL,,approximately 20%,,
